According to ChEMBL document CHEMBL1159217, “Anti-inflammatory activity of saikosaponins from Heteromorpha trifoliata” (1995):

How the values were obtained:
Type in all cases: functional
Mus musculus [1] = assay: Antiinflammatory activity in Swiss mouse assessed as inhibition of carrageenan-induced ear edema at 100 mg/kg, po administered 1 hr prior to carrageenan challenge measured after 3 hrs
Mus musculus [2] = assay: Antiinflammatory activity in Swiss mouse assessed as inhibition of 12-O-tetradecanoylphorbol acetate-induced ear edema at 0.5 mg/ear administered tropically
Mus musculus [3] = assay: Antiinflammatory activity in Swiss mouse assessed as inhibition of serotonin-induced ear edema at 50 mg/kg, sc in presence of actinomycin D administered simultaneously and 1.5 hrs after compound treatment for 3 hrs; design: scale not given: the % may be the effect or the level left; conditions: route subcutaneous
Mus musculus [4] = assay: Antiinflammatory activity in Swiss mouse assessed as inhibition of ethylphenylpropiolate-induced ear edema at 0.5 mg/ear administered tropically 16 hrs prior to ethylphenylpropiolate challenge
Mus musculus [5] = assay: Antiinflammatory activity in Swiss mouse assessed as inhibition of serotonin-induced ear edema at 50 mg/kg, sc; conditions: route subcutaneous
Mus musculus [6] = assay: Antiinflammatory activity in Swiss mouse assessed as inhibition of serotonin-induced ear edema at 50 mg/kg, sc in presence of cycloheximide administered simultaneously and 1.5 hrs after compound treatment for 3 hrs; design: scale not given: the % may be the effect or the level left; conditions: route subcutaneous
Mus musculus [7] = assay: Antiinflammatory activity in Swiss mouse assessed as inhibition of serotonin-induced ear edema at 50 mg/kg, sc in presence of progesterone administered 1 hr prior to compound treatment; conditions: route subcutaneous

SMILES: CO[C@@H]1C=C2[C@@H]3CC(C)(C)CC[C@]3(CO)[C@@H](O)C[C@@]2(C)[C@]2(C)CC[C@H]3[C@](C)(CO)[C@@H](O[C@@H]4O[C@H](C)[C@H](O)[C@H](O[C@@H]5O[C@H](CO)[C@@H](O)[C@H](O)[C@H]5O)[C@H]4O[C@@H]4O[C@H](CO)[C@@H](O)[C@H](O)[C@H]4O)CC[C@]3(C)[C@@H]12
- inhibition in vivo at 100 mg/kg (Mus musculus [1]): 18%
- inhibition (INH) (Mus musculus [2]): 87%

SMILES: C[C@H]1O[C@@H](O[C@H]2CC[C@@]3(C)[C@@H](CC[C@]4(C)[C@@H]3C=C[C@]35OC[C@@]6(CCC(C)(C)C[C@H]63)[C@@H](O)C[C@]54C)[C@]2(C)CO)[C@H](O[C@@H]2O[C@H](CO)[C@@H](O)[C@H](O)[C@H]2O)[C@@H](O[C@@H]2O[C@H](CO)[C@@H](O)[C@H](O)[C@H]2O)[C@H]1O [BUDDLEJASAPONIN IV]
- inhibition in vivo at 100 mg/kg (Mus musculus [1]): 23%
- Activity (Mus musculus [3]): 14%
- inhibition (INH) (Mus musculus [4]): 59%
- inhibition (INH) (Mus musculus [2]): 89%
- inhibition in vivo at 50 mg/kg (Mus musculus [5]): 48%
- Activity (Mus musculus [6]): 14%

SMILES: C[C@@H]1C[C@H]2[C@@H]3CCC4=CC(=O)C=C[C@]4(C)[C@@]3(F)[C@@H](O)C[C@]2(C)[C@@]1(O)C(=O)CO [DEXAMETHASONE]
- inhibition (INH) (Mus musculus [4]): 82%

SMILES: COc1ccc2c(c1)c(CC(=O)O)c(C)n2C(=O)c1ccc(Cl)cc1 [INDOMETHACIN]
- inhibition (INH) (Mus musculus [2]): 89%

SMILES: CC(=O)[C@H]1CC[C@H]2[C@@H]3CCC4=CC(=O)CC[C@]4(C)[C@H]3CC[C@]12C [PROGESTERONE]
- inhibition in vivo at 50 mg/kg (Mus musculus [7]): 44%
